Assay results as given in patent US11110185B2, “Combination formulation” (GE Healthcare AS, priority 2015, dated 2021).

Tests used:
[1] = In vitro relaxivity measurements (NMR relaxometer, 60 MHz, 37° C.); assay type: physicochemical
Procedure: In vitro relaxivity measurements were used to evaluate the efficacy (relaxivity) of the Combo formulations compared to the standalone commercial contrast agents. Longitudinal relaxation times were measured in 150 mM saline solution at 37° C. using a Minispec Mq benchtop NMR relaxometer (Bruker Instruments, Rheinstetten, Germany) operating at 60 MHz. The longitudinal relaxivity of the complexes were calculated by plotting the reciprocal of the T1 relaxation time versus the gadolinium concentration as determined via ICP-MS for each individual agent and the Combo formulations tested.

[2] = Contrast-enhanced MR imaging of dynamic vascular and delayed phases in minipigs; assay type: in vivo, Gottingen minipigs; conditions: for Peak Aorta SI: aorta ROI, 3.0 T, IV single injection 0.3 ml/kg; for percentage relative vascular intensity (1-RVI %), AP: arterial phase, 30 secs; for RVI AUC (total vascular enhancement: aorta, IVC, PV): composite RVI curves normalised to liver parenchyma, trapezoidal rule; for percentage relative vascular intensity (1-RVI %), LVP: late venous phase, 120 secs; for percentage relative vascular intensity (1-RVI %), PVP: portal venous phase, 60 secs
Procedure: The study was approved by the Universitair Ziekenhuis Brussel (UZB), Belgium local ethics committee for animal experiments on the 9 Mar. 2016 (EC number: 16-272-4). All animal experiments were carried out in accordance with the applicable laws and regulations. Naïve minipigs (Gottingen minipigs, Ellegaard Gottingen Minipigs, Denmark) were chosen as the model as its cardiac function and vascular dynamics closely resembles that of the human allowing optimal spatial and temporal resolution for the evaluation of the dynamic vascular phase.
The study consisted of five dosing groups (2 groups of contrast agent administered as single stand-alone dose; 3 groups administered with the Combo formulations). Each animal was tested once within each dosing group with a washout period of one week.
For each MRI examination, anaesthesia was induced with a bolus of the Zoletil mixture (0.06 ml/kg, intramuscular) and maintained by an infusion of Nesdonal (0.6 ml/kg/h, intravenously (IV) administered). Test items were administered IV as a single injection via PAC unit (Port-a-cath, Power PAC II, 1.9 mm, Smiths Medical, Belgium). The test items were administered at a volume of 0.3 ml/kg using a power injector (Medrad Spectris Solaris) at a rate of 2 ml/s. Immediately following administration, 20 ml saline was passed through the tubing to flush any remaining test item.
All MRI acquisitions were performed on a clinical 3.0 T GE MR750w scanner (GE Discovery, GE Healthcare, Waukesha, Wis.) using an abdominal phase-array surface coil positioned on the abdomen of the pigs. A multiphase dynamic 3D T1w LAVA (Liver Acquisition with Volume Acquisition) was performed using bolus timing to capture the early arterial to the late venous vascular phase using the following imaging parameters: TR/TE=2.9/1.3 ms, FA=12°, FoV=42×40 cm, matrix 220×160, slice thickness=3 mm, number of slices=40, NEX=1. The protocol also included a free-breathing navigated LAVA acquired at both pre and post administration of test item (during the delayed enhancement phase).
Quantitative analysis on the time-resolved dynamic series was completed using the Advantage Windows VolumeShare 7 Workstation (GE Healthcare). […] Visual verification of all ROI locations was performed by an abdominal radiologist. For each test item, absolute signal intensity (SI) curves were analysed for each of the ROIs and expressed as peak value with inter-quartile ranges of 25% and 75%.
To calculate the vascular enhancement, relative vascular intensity (RVI) was normalised to liver parenchyma for the aorta, IVC and PV using the equation below.
Relative Vascular Intensity (RVI)=(SI(Vessel)−SI(Liver))/(SI(Liver))
Using the RVI curves, composite vascular intensity curves were derived encompassing all vascular signal from the aorta, IVC and the PV. The total vascular enhancement associated with each test item was determined by the trapezoidal rule of area under the curve (AUC), where positive signal above y=0 was included. From this, time-relative fractions at the arterial phase (AP: 30 secs), portal venous phase (PVP: 60 secs) and late venous phase (LVP: 120 secs) were expressed as a proportion of the total vascular AUC (% RVI) and were calculated as 1-% RVI to give the percentage reduction though each phase.
For the delayed phase, a qualitative assessment was performed by an experienced radiologist for the presence or lack of enhancement pre and post-administration of test item.

[3] = normal liver, after intravenous injection; cited from earlier work

Substance | Relaxivity in aqueous solution (r1) [1] | peak arterial enhancement, SI (in words) ([2]; SI curves, aorta) | Peak Aorta SI [2] | percentage relative vascular intensity (1-RVI %), AP [2] | RVI AUC (total vascular enhancement: aorta, IVC, PV) [2] | percentage relative vascular intensity (1-RVI %), LVP [2] | percentage relative vascular intensity (1-RVI %), PVP [2] | hepatobiliary excretion [3] | vascular enhancement in LVP (in words) ([2]; 120 secs post injection)
2-[4,7-his(carboxylatomethyl)-1 0-(carboxymethyl)-1,4, 7,10-tetrazacyclododec-1-yl]acetate; gadolinium(3+) [Gadoterate] | 2.9 mM⁻¹ s⁻¹ | highest SI | 2402 | 97.5% | 63.2 AU | 8.4% | 42.8% | – | –
disodium; 2-[[2-[bis(carboxylatomethyl)amino]-3-(4-ethoxyphenyl)propyl]-[2-bis(carboxylatomethyl)amino]ethyl]amino]acetate, gadolinium(3+) [Gadoxetate] | 4.7 mM⁻¹ s⁻¹ | – | 2096 | 82.4% | 34.2 AU | 0.0% | 19.0% | up to 50% | no vascular enhancement evident
